Measurements published in US6174907A, “Benzimidazole compounds containing 1,2,4-triazole ring, and compositions and methods of use containing the same” (Fuji Photo Film Co., Ltd., priority 1995, dated 2001).
Like-named read-outs stand apart in the source and are kept apart here.

Key:
[1] = tested on: mouse peritoneal macrophages; assay: Suppression of foaming of macrophages (cholesterol ester synthesis) in vitro; type: cell-based, mouse (female ICR); conditions: Mus musculus, Peritoneal macrophage, 5 μM, 16 hours, relative to control as 100%, smaller value = more potent suppression, read-out: Rate of CE synthesis (%)
Protocol: Activity of the compounds of the present invention for suppressing the foaming of macrophages
(§1) Activity of the compounds of the present invention for suppressing the foaming of macrophages, which triggers arterial sclerosis, was examined by an in vitro experiment using mouse peritoneal macrophages. 15-Week old female ICR mice (Nippon SLC) were subjected to bleeding by cutting off their cervicalis, and Hanks buffer (Nippon Seiyaku) was injected into their peritoneal cavities. After abdominal regions of the mice were massaged, the buffer was recovered immediately, and then the resulting buffer was centrifuged at 1,000 r.p.m. for five minutes to collect peritoneal macrophages. Then, the collected macrophages were suspended in GTI medium (Wako Pure Chemical Industries), and inoculated onto a 24-well microtiter plate. After the macrophages were cultivated at 37° C. under 5% CO2 for two hours, the culture medium was changed with Dulbecco Modified Eagle Medium (MEM, Nippon Seiyaku). The macrophages were further cultivated at 37° C. under 5% CO2 for 16 hours, and then a test compound and liposomes were added to the culture.
1) Test compound: dissolved in DMSO (Wako Pure Chemical Industries),
PC: Phosphatidylcholine (Funakoshi);
PS: Phosphatidylserine (Funakoshi);
DCP: Dicetylphosphate (Funakoshi);
CHOL: Cholesterol (Sigma)
(§2) After cultivation was further continued at 37° C. under 5% CO2 for 16 hours, lipid fraction was extracted with chloroform and methanol. The extracted lipid fraction was dissolved in isopropyl alcohol, and the produced cholesterol ester (CE) was quantified by an enzymatic luminescence method. Yield of the cholesterol ester was calculated as a relative ratio based on yield of the control as 100% where no test compound was added. Cytotoxicity was examined microscopically by observing morphological alteration of cells. In the tables, compound numbers correspond to those of the compounds of present invention described in the examples.

[2] = tested on: mouse peritoneal macrophages; assay: Cytotoxicity examined microscopically (morphological alteration of cells); type: cell-based, mouse (female ICR); conditions: 5 μM, observed microscopically
Protocol: as §1, §2

[3] = tested on: rabbits fed with high cholesterol food; assay: Effect on lipid in blood, GOT and GPT in rabbits fed with high cholesterol food; type: in vivo, NZW rabbits (male); conditions: 100 mg/kg/day/rabbit in feed; for Difference in total cholesterol compared with the control group / Increase of HDL cholesterol / Reduction of LDL cholesterol compared with the control group: seven days, high cholesterol feed; for GOT / GPT: during the experiment
From the text: (§3) Activity of the compounds of the present invention for suppressing the formation of arterial sclerosis lesions (in vivo experiment) By using rabbits fed with high cholesterol food, effect on lipid in blood and activity of the compounds of the present invention for suppressing formation of arterial sclerosis lesions were examined. Hypercholesterolemia condition was created by feeding NZW rabbits (male) weighing about 2 kg with high cholesterol feed (100 g/day/rabbit of OCR-4 [Oriental Yeast]+0.5% cholesterol+0.5% olive oil) for seven days. A group consisting of three rabbits was continuously administered with a compound of the present invention (Compound B16 or Compound B49) for seven days by mixing the compound with the above feed at an amount of 100 mg/kg/day/rabbit. Another group consisting of three rabbits was fed solely with the high cholesterol feed and used as a control group. Blood was collected from parotid veins with one week interval, and total cholesterol, LDL cholesterol, HDL cholesterol, GOT, and GPT were measured.

[4] = tested on: rabbits fed with high cholesterol food; assay: Suppression of formation of arterial sclerosis lesions (cholesterol deposited on inner vascular walls of aortas); type: in vivo, NZW rabbits (male); conditions: 100 mg/kg/day/rabbit in feed; aortas removed seven weeks after the administration
From the text: Activity of the compounds of the present invention for suppressing the formation of arterial sclerosis lesions (in vivo experiment)
as §3, with “By” for “Activity of the compounds of the present invention for suppressing the formation of arterial sclerosis lesions (in vivo experiment) By”, “group.” for “group. Blood was collected from parotid veins with one week interval, and total cholesterol, LDL cholesterol, HDL cholesterol, GOT, and GPT were measured.”
Aortas were removed seven weeks after the administration, and cholesterol deposited on inner vascular walls was quantified. In the groups administered with Compound B16 or Compound B49, the amount of deposited cholesterol was reduced by 40% and 45% compared with control, respectively.

Row | Structure (SMILES) | activity at 5 µM ([1]; Table 4) | Cytotoxicity ([2]; Table 4) | further results
1 | Cc1nnc(SCCCCCSc2nc3ccccc3[nH]2)s1 [Compound B16] | 9.3% | Not observed | Difference in total cholesterol compared with the control group [3]: no difference in total cholesterol was observed; Increase of HDL cholesterol [3]: 30%; Reduction of LDL cholesterol compared with the control group [3]: 35%; GOT [3]: No abnormal value was observed; GPT [3]: No abnormal value was observed; Reduction of the amount of deposited cholesterol on inner vascular walls of aortas compared with control [4]: 40%
2 | c1cnc(SCCCCCSc2nc3ccccc3[nH]2)nc1 [Compound B49] | 11% | Not observed | Difference in total cholesterol compared with the control group [3]: no difference in total cholesterol was observed; Increase of HDL cholesterol [3]: 30%; Reduction of LDL cholesterol compared with the control group [3]: 30%; GOT [3]: No abnormal value was observed; GPT [3]: No abnormal value was observed; Reduction of the amount of deposited cholesterol on inner vascular walls of aortas compared with control [4]: 45%
3 | c1ccc(SCCCCCCCc2nc3ccccc3[nH]2)nc1 [Compound B47] | 23% | Not observed | 
4 | Oc1ncnc2[nH]c(SCCCCCSc3nc4ccccc4[nH]3)nc12 [Compound B14] | 48% | Not observed | 
5 | COc1ccc2[nH]c(SCCCCCSc3ccccn3)nc2c1 [Compound B34] | 37% | Not observed | 
6 | [O-][n+]1ccccc1SCCCCCSc1nc2ccccc2[nH]1 [Compound B40] | 25% | Not observed | 
7 | Cc1nnc(SCCCCCSc2nc3ccccc3[nH]2)n1C [Compound B8] | 24% | Not observed | 
8 | c1ccc(SCCOCCSc2nc3ccccc3[nH]2)nc1 [Compound B67] | 54% | Not observed | 
9 | c1ccc(-n2cnnc2SCCCCCSc2nc3ccccc3[nH]2)cc1 [Compound B7] | 21% | Not observed | 
10 | Clc1ccc2sc(SCCCCCSc3nc4ccccc4[nH]3)nc2c1 [Compound A34, 1-(2'-benzimidazolylthio)-5-(2"-(5"-chlorobenzothiazolyl)thio)pentane] |  |  | activity at 5 µM ([1]; Table 3): 28%; Cytotoxicity ([2]; Table 3): Not observed
11 | Cn1ccnc1SCCCCCSc1nc2ccccc2[nH]1 [Compound B2] | 16% | Not observed | 
12 | O=[N+]([O-])c1ccnc(SCCCCCSc2nc3ccccc3[nH]2)c1 [Compound B42] | 12% | Not observed | 
13 | Cc1ccc2[nH]c(SCCCCCCSc3nc4ccccc4[nH]3)nc2c1 [Compound A19, 1-(2'-(5'-methylbenzimidazolyl)thio)-6-(2"-benzimidazolylthio)hexane] |  |  | activity at 5 µM ([1]; Table 3): 54%; Cytotoxicity ([2]; Table 3): Not observed
14 | Oc1cc(SCCCCCSc2nc3cc(Cl)c(Cl)cc3[nH]2)nc2ccccc12 [Compound B58] | 18% | Not observed | 
15 | CN(C)C(=O)c1nnc(SCCCCCSc2nc3ccccc3[nH]2)s1 [Compound B18] | 35% | Not observed | 
16 | CS(=O)(=O)Nc1ccc2[nH]c(SCCCCCSc3ccccn3)nc2c1 [Compound B38] | 22% | Not observed | 
17 | CC1=CC(C)(C)NC(SCCCCCSc2nc3ccccc3[nH]2)=N1 [Compound B55] | 52% | Not observed | 
